Assay results as given in patent publication US20080161422A1, “Methods and Compositions for the Treatment of Lipid-Associated Disorders” (priority 2005, published 2008).
Entries after “also recorded” stand apart in the source; their conditions may differ.

What was measured:
niacin receptor [1] = target: T1, niacin receptor (Homo sapiens, UniProt Q8TDS4); assay: Binding to the niacin receptor
niacin receptor [2] = target: T1, niacin receptor; assay: MAP kinase ELISA (phosphoERK1/2) in CHO cells expressing the human niacin receptor; settings: compared to niacin
mouse niacin receptor = target: T2, mouse niacin receptor (Mus musculus, UniProt Q9EP66); assay: MAP kinase ELISA (phosphoERK1/2) in CHO cells expressing the mouse niacin receptor; format: cell-based; settings: compared to niacin
T2 construct: expressed in transfected cells; host or cells: CHO cells
T2 sequence (Q9EP66 whole entry): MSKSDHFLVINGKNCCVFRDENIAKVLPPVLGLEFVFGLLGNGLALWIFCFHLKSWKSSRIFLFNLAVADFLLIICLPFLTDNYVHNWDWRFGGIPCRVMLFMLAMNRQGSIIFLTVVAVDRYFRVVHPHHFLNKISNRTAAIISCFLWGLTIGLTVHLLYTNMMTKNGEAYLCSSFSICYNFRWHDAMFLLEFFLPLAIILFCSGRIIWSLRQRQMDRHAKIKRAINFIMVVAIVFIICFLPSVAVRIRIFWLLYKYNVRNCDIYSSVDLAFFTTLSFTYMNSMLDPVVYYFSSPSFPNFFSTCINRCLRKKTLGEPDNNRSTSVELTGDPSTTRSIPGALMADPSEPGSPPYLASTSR
Procedure: A kit from Biosource (phosphoERK1/2 pT185pY187 ELISA, Catalog #KHO-0091) was used according to the following protocol.
The cells were serum-starved overnight prior to stimulating the cells with compound.
A. Compounds were dissolved in DMSO. […] PMA (100 ng/ml) was used as a positive control. B. Cell dishes were taken out of the incubator and placed on a rocker set to gentle rocking (set speed at 4). Compound was carefully added and cells were returned to the incubator to incubate for 5 min. At 4.5 min, the medium was aspirated from dishes in the order that the compound was added. Then 2 ml cold PBS was added and excess medium was removed by gentle swirling. The PBS was aspirated and 1 ml of PBS was added (1 ml for confluent 6 cm dish).
A. Cells were scraped from dish with a rubber policeman and transferred to a microfuge tube, then centrifuged at 3000 rpm at 4° C. for 5 minutes. B. The PBS was aspirated and cell pellet lysed in Cell Extraction Buffer (0.1% SDS) (250-300 μl for confluent 6 cm dish) for 30 min. on ice with vortexing at 10 min intervals. C. The mixture was then centrifuged at max speed (16,000×G) for 15 min. at 4° C. D. Clarified lysates were transferred to new microfuge tubes and protein concentration measure. […]
A. All reagents were at room temperature and mixed before use. […] The number of 8 well strips needed for assay was determined and bag was sealed and returned to 4° C. […]

[3] = test system: women suffering from painful menstrual cramps; settings: 80 women; 100 mg niacin twice daily, then every 2 to 3 hours during heavy cramps; cited from earlier work

T1 sequence (Q8TDS4 whole entry): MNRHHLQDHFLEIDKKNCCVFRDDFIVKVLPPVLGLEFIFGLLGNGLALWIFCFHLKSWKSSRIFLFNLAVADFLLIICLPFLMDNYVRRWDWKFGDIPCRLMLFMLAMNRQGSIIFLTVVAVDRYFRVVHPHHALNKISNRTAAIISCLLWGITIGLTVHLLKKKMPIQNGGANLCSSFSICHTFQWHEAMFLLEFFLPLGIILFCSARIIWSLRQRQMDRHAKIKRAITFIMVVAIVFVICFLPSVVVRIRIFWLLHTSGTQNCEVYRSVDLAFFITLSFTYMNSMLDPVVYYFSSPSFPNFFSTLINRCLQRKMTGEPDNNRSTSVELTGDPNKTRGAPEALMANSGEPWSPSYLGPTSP

Compound | binding to the niacin receptor (niacin receptor [1]) | MAP kinase activation (niacin receptor [2]) | MAP kinase activation (mouse niacin receptor) | subjects experiencing significant relief [3]
c1cncc(-c2nn[nH]n2)c1 [Compound 12] | binds to the niacin receptor | closely matches the profile of niacin; also recorded: behaves like niacin in a MAP kinase assay | closely matches the profile of niacin; also recorded: behaves like niacin in a MAP kinase assay | –
O=C(O)c1cccnc1 [niacin, nicotinic acid] | – | – | – | About 90%
